Source: patent US7387800B2, “Sesquiterpenoid derivatives having adipocyte differentiation inhibitory effect” (Meiji Dairies Corporation, priority 2001, dated 2008)

Tested on: Mouse adipocyte precursors (3T3-L1)
Assay: Inhibition of insulin-induced adipocyte differentiation, acetic acid (14C-CH3COOH) incorporation activity as index
Assay type: cell-based
Details: 3T3-L1 differentiation into adipocytes; compound added with insulin; FIG. 4
Description: Whether Calea extract solution has an inhibitory activity on adipocyte differentiation induced by the addition of insulin was investigated. First, the aerial portion of Calea (170 g) was ground, and extracted by heated reflux using acetone (24 hours×2 times) to produce Calea extract solution. The extracted solution was filtered, and then concentrated under reduced pressure to yield a concentrated extract. Mouse adipocyte precursors (3T3-L1) obtained from Human Science Research Resources Bank was used as the adipocyte in the present experiment. Normal successive cultivation was performed using Dulbecco's modified Eagle MEM medium containing 10% calf serum (CS) at 37° C. in the presence of 5% CO2. […]
In the system where acetic acid incorporation activity was used as an index, first the cells were placed into a 24-well plate at a density of 4.2×10^4 cell/well. […] Using a liquid scintillation counter, radioactivity of the isopropanol fraction (adipose component) was measured. […] Then, protein quantification was performed according to the Bradford dye-binding method. […]

SMILES | incorporation inhibitory activity (acetic acid incorporation), result in words
C=C(C)C(=O)O[C@H]1[C@H]2C(=C)C(=O)O[C@@H]2C[C@@H](C)[C@@H]2O[C@@H]2C(=O)[C@@](C)(O)[C@@H]1OC(=O)C(=C)C [compound 6] | high incorporation inhibitory activity
C=C(C)C(=O)O[C@H]1[C@H]2C(=C)C(=O)O[C@@H]2C[C@@H](C)/C=C\C(=O)[C@@](C)(O)[C@@H]1OC(=O)C(=C)C [compound 11] | high incorporation inhibitory activity
